According to patent US8853233B2, “Broad-spectrum anti-cancer treatment based on iminocamptothecin derivatives” (Sigma-Tau Industrie Farmaceutiche Riunite S.p.A., priority 2007, dated 2014):

Tests used:
Design in all cases: species or system nude athymic mice
[1] = tested on: A431 epidermoid skin ca. xenograft; assay: In vivo antitumoral activity, A431 tumor xenograft; details: q4d × 4
Experimental: (§1) Exponentially growing tumor cells were injected s.c. into nude athymic mice. The number of tumor cells was previously chosen by a growth curve. […] Animals were housed under a light-dark cycle, keeping temperature and humidity constant. Parameters of the animal rooms were assessed as follows: 22±2° C. temperature, 55±10% relative humidity, about 15-20 filtered air changes/hour and 12 hour circadian cycle of artificial light (7 a.m., 7 p.m.). At request, the environmental conditions were monitored and the data are retained in Animal Housing Archives. Drinking water was supplied ad libitum. Each mouse was offered daily a complete pellet diet (GLP 4RF21, Mucedola) throughout the study. The analytical certificates of animal food and water are retained at Sigma-Tau premises. All animals were weighed before starting the experiment and were subdivided into the different dosage groups. Each cage was identified by a paper tag indicating: cage number, group, date of tumor injection, starting date of treatment, name of the test item, dose and route of administration, date of sacrifice.
(§2) Tumor growth was followed by biweekly measurements of tumor diameters with a Vernier caliper. Tumor volume (TV, mm^3) was calculated as: [length (mm)×width (mm)^2]/2, where the width and the length are the shortest and the longest diameters of each tumor, respectively.
(§3) LTS (long term survivors) were considered mice without tumor 90 days upon the tumor injection.

[2] = tested on: HT1376 bladder ca. xenograft; assay: In vivo antitumoral activity, HT1376 tumor xenograft; details: q4d × 4
Experimental: as §1, §2, §3

[3] = tested on: FaDu squamous pharynx carcinoma xenograft; assay: In vivo antitumoral activity, FaDu tumor xenograft
Experimental: as §1, §2, §3

[4] = tested on: A253 epidermoid submaxillary salivary gland carcinoma xenograft; assay: In vivo antitumoral activity, A253 tumor xenograft; details: q4d × 4
Experimental: as §1, §2
LTS (long term survivors) were considered mice without tumor 90 days upon the tumor injection. […]

[5] = tested on: 501Mel melanoma xenograft; assay: In vivo antitumoral activity, 501Mel tumor xenograft; details: 501Mel xenograft, q4d × 4
Experimental: as §1, §2, §3

[6] = tested on: KB squamous oral head and neck carcinoma xenograft; assay: In vivo antitumoral activity, KB tumor xenograft; details: q4d × 4
Experimental: as §1, §2, §3

[7] = tested on: MESO mesothelioma xenograft; assay: In vivo antitumoral activity, MESO tumor xenograft; details: q4d × 4
Experimental: as §1, §2, §3

[8] = tested on: MiaPaCa2 pancreas ca. xenograft; assay: In vivo antitumoral activity, MiaPaCa2 tumor xenograft; details: q4d × 4
Experimental: as §1, §2, §3

## CC[C@@]1(O)C(=O)OCc2c1cc1n(c2=O)Cc2c-1nc1ccccc1c2/C=N\OCCN [ST1968, 7-(2-amino)ethoxyiminomethylcamptothecin]
[1]; 30 mg/kg i.v.
  CR (complete response): 12/12
  LCK (log10 cell kill): >>7.7
  LTS (long term survivors): 12/12
  TVI % (tumor volume inhibition): 100%
[2]; 30 mg/kg i.v.
  CR (complete response): 1/12
  LCK (log10 cell kill): 0.5
  LTS (long term survivors): 0/12
  TVI % (tumor volume inhibition): 77%
[3]; 15 mg/kg i.v., q4d × 4
  CR (complete response): 8/8
  LCK (log10 cell kill): >>3.9
  LTS (long term survivors): 8/8
  TVI % (tumor volume inhibition): 100%
[3]; 30 mg/kg i.v., q4d × 4
  CR (complete response): 8/8
  LCK (log10 cell kill): >>3.9
  LTS (long term survivors): 8/8
  TVI % (tumor volume inhibition): 100%
[3]; 35 mg/kg i.v., q4d × 4
  CR (complete response): 7/7
  LCK (log10 cell kill): >>3.9
  LTS (long term survivors): 7/7
  TVI % (tumor volume inhibition): 100%
[4]; 15 mg/kg i.v.
  CR (complete response): 0/8
  LCK (log10 cell kill): 0.6
  LTS (long term survivors): 0/8
  TVI % (tumor volume inhibition): 84%
[4]; 30 mg/kg i.v.
  CR (complete response): 0/8
  LCK (log10 cell kill): 1.2
  LTS (long term survivors): 1/8
  TVI % (tumor volume inhibition): 90%
[4]; 35 mg/kg i.v.
  CR (complete response): 0/7
  LCK (log10 cell kill): 1.5
  LTS (long term survivors): 2/7
  TVI % (tumor volume inhibition): 96%
[5]; 20 mg/kg i.v.
  CR (complete response): 0/6
  LCK (log10 cell kill): 1.0
  LTS (long term survivors): 0/6
  TVI % (tumor volume inhibition): 65%
[5]; 30 mg/kg i.v.
  CR (complete response): 0/10
  LCK (log10 cell kill): 1.4
  LTS (long term survivors): 0/10
  TVI % (tumor volume inhibition): 68%
[6]; 17.5 mg/kg i.v.
  CR (complete response): 4/8
  LCK (log10 cell kill): 3.79
  LTS (long term survivors): 4/8
  TVI % (tumor volume inhibition): 99%
[6]; 35 mg/kg i.v.
  CR (complete response): 7/7
  LCK (log10 cell kill): >>4.0
  LTS (long term survivors): 7/7
  TVI % (tumor volume inhibition): 100%
[7]; 30 mg/kg i.v.
  CR (complete response): 2/12
  LCK (log10 cell kill): 1.4
  LTS (long term survivors): 0/12
  TVI % (tumor volume inhibition): 92%
[8]; 17.5 mg/kg i.v.
  CR (complete response): 0/7
  LCK (log10 cell kill): 1.23
  LTS (long term survivors): 0/7
  TVI % (tumor volume inhibition): 75%
[8]; 30 mg/kg i.v.
  CR (complete response): 0/8
  LCK (log10 cell kill): 1.67
  LTS (long term survivors): 0/8
  TVI % (tumor volume inhibition): 89%

## N.N.[Cl][Pt][Cl] [cisplatin]
[3]; 4.7 mg/kg i.v., q7d × 3
  CR (complete response): 1/8
  LCK (log10 cell kill): 1.6
  LTS (long term survivors): 0/8
  TVI % (tumor volume inhibition): 93%
[3]; 7 mg/kg i.v., q7d × 3
  CR (complete response): 1/8
  LCK (log10 cell kill): 3.9
  LTS (long term survivors): 3/8
  TVI % (tumor volume inhibition): 99%

## CCc1c2c(nc3ccc(OC(=O)N4CCC(N5CCCCC5)CC4)cc13)-c1cc3c(c(=O)n1C2)COC(=O)[C@]3(O)CC [irinotecan, reference compound]
[1]; 50 mg/kg i.v.
  CR (complete response): 12/12
  LCK (log10 cell kill): 6.8
  LTS (long term survivors): 9/12
[2]; 50 mg/kg i.v.
  CR (complete response): 0/10
  LCK (log10 cell kill): 0.2
  LTS (long term survivors): 0/10
[3]; 30 mg/kg i.v., q4d × 4
  CR (complete response): 8/8
  LCK (log10 cell kill): >>3.9
  LTS (long term survivors): 8/8
[3]; 60 mg/kg i.v., q4d × 4
  CR (complete response): 8/8
  LCK (log10 cell kill): >>3.9
  LTS (long term survivors): 8/8
[4]; 30 mg/kg i.v.
  CR (complete response): 0/8
  LCK (log10 cell kill): 0.1
  LTS (long term survivors): 0/8
[4]; 60 mg/kg i.v.
  CR (complete response): 0/8
  LCK (log10 cell kill): 0.5
  LTS (long term survivors): 0/8
[5]; 50 mg/kg i.v.
  CR (complete response): 0/10
  LCK (log10 cell kill): 1.3
  LTS (long term survivors): 0/10
[6]; 30 mg/kg i.v.
  CR (complete response): 0/7
  LCK (log10 cell kill): 1.26
  LTS (long term survivors): 0/7
[6]; 60 mg/kg i.v.
  CR (complete response): 0/8
  LCK (log10 cell kill): 1.63
  LTS (long term survivors): 0/8
[7]; 50 mg/kg i.v.
  CR (complete response): 0/12
  LCK (log10 cell kill): 0.8
  LTS (long term survivors): 0/12
[8]; 60 mg/kg i.v.
  CR (complete response): 0/7
  LCK (log10 cell kill): 1.23
  LTS (long term survivors): 0/7
